Legend:
[1] = molecular target: recombinant Dictyostelium miozin (Dictyostelium) (Dictyostelium discoideum, UniProt P08799); experiment: actomyosin steady state ATPase measurement, Dictyostelium myosin; type: biochemical; conditions: for IC50: concentration required for semi-maximal inhibition of ATPase, read-out: IC50 (μM) Dicty; for % inhibition. complete Dicty: maximum value of inhibition of ATPase activity; for inhibition at 5 µM: read-out: % inhibition at 5 μM (or 10 μM if racemate) Dicty; for inhibition at 50 µM: read-out: % inhibition at 50 μM (or 100 μM if racemate) Dicty
Source text: (§1) […]; (ii) the concentration required for semi-maximal inhibition.

[2] = solubility in PBS in the presence of 1% DMSO; type: physicochemical; conditions: phosphate buffered saline with 1% DMSO, aqueous buffer, kinetic from dmso stock, PBS w/o Mg, Ca
[3] = molecular target: isolated smooth muscle myosin (UniProt P10587); type: biochemical, chamois; conditions: concentration required for semi-maximal inhibition of ATPase
Source text: (ii) the concentration required for semi-maximal inhibition.

[4] = molecular target: isolated smooth muscle myosin (UniProt P10587); type: biochemical, chamois; conditions: for % inhibition at 5 μM (or 10 μM if racemate) Smooth: 5 μM (10 μM if racemate); for % inhibition at 5 μM (or 10 μM if racemate) Smooth / % inhibition at 50 μM (or 100 μM if racemate) Smooth: ATPase activity; for % inhibition at 50 μM (or 100 μM if racemate) Smooth: 50 μM (100 μM if racemate); for % inhibition. complete Smooth: maximum value of inhibition of ATPase activity
[5] = tested on: isolated rabbit skeletal muscle myosin (skeletal); experiment: actomyosin steady state ATPase measurement, skeletal muscle myosin; type: biochemical; conditions: for % inhibition at 5 μM (or 10 μM if racemate) Skeletal: 5 μM (10 μM if racemate); for % inhibition at 5 μM (or 10 μM if racemate) Skeletal / % inhibition at 50 μM (or 100 μM if racemate) Skeletal: ATPase activity; for % inhibition at 50 μM (or 100 μM if racemate) Skeletal: 50 μM (100 μM if racemate); for IC50: concentration required for semi-maximal inhibition of ATPase; for % inhibition. complete Skeletal: maximum value of inhibition of ATPase activity
Source text: as §1

[6] = molecular target: recombinant human non-muscle myosin 2 NM2B (Homo sapiens, UniProt P35580); experiment: actomyosin steady state ATPase measurement, NM2B; type: biochemical
Source text: as §1

[7] = molecular target: recombinant human non-muscle myosin 2 NM2A (Homo sapiens, UniProt P35579); experiment: actomyosin steady state ATPase measurement, NM2A; type: biochemical; conditions: for IC50: concentration required for semi-maximal inhibition of ATPase; for % inhibition. complete NM2A: maximum value of inhibition of ATPase activity; for inhibition at 5 µM: read-out: % inhibition at 5 μM (or 10 μM if racemate) NM2A, 5 μM (10 μM if racemate); for inhibition at 5 µM / inhibition at 50 µM: ATPase activity; for inhibition at 50 µM: read-out: % inhibition at 50 μM (or 100 μM if racemate) NM2A, 50 μM (100 μM if racemate)
recombinant human non-muscle myosin 2 NM2A, sequence (P35579 whole entry): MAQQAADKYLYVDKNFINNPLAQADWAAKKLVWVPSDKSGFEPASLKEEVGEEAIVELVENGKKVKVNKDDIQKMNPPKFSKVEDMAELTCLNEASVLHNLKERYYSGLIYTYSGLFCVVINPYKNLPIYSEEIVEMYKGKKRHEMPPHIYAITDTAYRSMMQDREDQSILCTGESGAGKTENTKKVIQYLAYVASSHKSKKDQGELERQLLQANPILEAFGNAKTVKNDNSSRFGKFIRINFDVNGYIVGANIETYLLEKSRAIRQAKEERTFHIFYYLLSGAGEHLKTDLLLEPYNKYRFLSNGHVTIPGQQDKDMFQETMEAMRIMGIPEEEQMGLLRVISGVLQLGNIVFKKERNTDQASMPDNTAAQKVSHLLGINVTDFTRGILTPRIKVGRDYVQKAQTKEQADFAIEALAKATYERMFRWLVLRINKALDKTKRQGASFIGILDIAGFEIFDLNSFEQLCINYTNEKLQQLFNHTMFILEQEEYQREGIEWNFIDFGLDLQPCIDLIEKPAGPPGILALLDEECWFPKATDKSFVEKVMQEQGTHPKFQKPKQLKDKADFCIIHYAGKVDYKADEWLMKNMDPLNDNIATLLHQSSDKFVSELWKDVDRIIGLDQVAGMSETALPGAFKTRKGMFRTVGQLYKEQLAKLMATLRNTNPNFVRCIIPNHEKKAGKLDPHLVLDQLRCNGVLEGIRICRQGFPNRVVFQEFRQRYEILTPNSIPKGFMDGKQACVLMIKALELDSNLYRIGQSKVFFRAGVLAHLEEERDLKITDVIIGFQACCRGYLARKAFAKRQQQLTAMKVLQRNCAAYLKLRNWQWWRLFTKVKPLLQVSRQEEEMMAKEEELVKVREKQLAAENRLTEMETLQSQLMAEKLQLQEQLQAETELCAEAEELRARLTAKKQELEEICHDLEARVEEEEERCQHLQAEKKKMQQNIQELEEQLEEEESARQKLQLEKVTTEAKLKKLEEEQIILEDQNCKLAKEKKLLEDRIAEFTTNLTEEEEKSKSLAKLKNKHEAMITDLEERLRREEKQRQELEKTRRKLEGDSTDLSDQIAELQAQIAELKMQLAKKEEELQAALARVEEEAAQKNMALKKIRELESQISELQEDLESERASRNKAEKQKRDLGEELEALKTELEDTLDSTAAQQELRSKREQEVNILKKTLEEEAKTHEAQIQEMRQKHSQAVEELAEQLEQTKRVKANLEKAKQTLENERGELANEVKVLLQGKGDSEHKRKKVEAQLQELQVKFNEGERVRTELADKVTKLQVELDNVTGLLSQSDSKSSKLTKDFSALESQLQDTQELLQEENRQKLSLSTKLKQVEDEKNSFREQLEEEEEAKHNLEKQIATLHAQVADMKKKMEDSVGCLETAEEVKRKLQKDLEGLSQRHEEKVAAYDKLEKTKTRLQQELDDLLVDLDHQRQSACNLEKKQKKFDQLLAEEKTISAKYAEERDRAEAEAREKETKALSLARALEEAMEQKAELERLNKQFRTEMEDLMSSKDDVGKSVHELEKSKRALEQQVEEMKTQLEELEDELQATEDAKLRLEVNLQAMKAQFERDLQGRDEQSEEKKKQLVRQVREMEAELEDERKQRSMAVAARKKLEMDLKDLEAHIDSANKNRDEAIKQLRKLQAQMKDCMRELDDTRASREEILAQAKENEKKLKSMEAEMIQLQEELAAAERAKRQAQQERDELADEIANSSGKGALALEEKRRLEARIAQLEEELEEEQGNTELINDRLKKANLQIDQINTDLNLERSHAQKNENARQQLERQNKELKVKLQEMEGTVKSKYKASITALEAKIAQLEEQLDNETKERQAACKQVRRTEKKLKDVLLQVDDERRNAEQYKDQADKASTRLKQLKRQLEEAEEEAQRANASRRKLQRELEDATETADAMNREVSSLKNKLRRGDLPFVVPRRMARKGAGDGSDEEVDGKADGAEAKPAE
Source text: as §1

[8] = molecular target: T1, isolated porcine cardiac ventricular myocardium (cardiac) (Sus scrofa, UniProt P79293); experiment: actomyosin steady state ATPase measurement, cardiac myosin; type: biochemical; conditions: for IC50: concentration required for semi-maximal inhibition of ATPase; for % inhibition. complete cardiac: maximum value of inhibition of ATPase activity; for inhibition at 5 µM: read-out: % inhibition at 5 μM (or 10 μM if racemate) cardiac, 5 μM (10 μM if racemate); for inhibition at 5 µM / inhibition at 50 µM: ATPase activity; for inhibition at 50 µM: read-out: % inhibition at 50 μM (or 100 μM if racemate) cardiac, 50 μM (100 μM if racemate)
T1 construct: isolated porcine cardiac ventricular myocardium (cardiac); from tissue; host or cells: porcine cardiac ventricle
T1 sequence (P79293 whole entry): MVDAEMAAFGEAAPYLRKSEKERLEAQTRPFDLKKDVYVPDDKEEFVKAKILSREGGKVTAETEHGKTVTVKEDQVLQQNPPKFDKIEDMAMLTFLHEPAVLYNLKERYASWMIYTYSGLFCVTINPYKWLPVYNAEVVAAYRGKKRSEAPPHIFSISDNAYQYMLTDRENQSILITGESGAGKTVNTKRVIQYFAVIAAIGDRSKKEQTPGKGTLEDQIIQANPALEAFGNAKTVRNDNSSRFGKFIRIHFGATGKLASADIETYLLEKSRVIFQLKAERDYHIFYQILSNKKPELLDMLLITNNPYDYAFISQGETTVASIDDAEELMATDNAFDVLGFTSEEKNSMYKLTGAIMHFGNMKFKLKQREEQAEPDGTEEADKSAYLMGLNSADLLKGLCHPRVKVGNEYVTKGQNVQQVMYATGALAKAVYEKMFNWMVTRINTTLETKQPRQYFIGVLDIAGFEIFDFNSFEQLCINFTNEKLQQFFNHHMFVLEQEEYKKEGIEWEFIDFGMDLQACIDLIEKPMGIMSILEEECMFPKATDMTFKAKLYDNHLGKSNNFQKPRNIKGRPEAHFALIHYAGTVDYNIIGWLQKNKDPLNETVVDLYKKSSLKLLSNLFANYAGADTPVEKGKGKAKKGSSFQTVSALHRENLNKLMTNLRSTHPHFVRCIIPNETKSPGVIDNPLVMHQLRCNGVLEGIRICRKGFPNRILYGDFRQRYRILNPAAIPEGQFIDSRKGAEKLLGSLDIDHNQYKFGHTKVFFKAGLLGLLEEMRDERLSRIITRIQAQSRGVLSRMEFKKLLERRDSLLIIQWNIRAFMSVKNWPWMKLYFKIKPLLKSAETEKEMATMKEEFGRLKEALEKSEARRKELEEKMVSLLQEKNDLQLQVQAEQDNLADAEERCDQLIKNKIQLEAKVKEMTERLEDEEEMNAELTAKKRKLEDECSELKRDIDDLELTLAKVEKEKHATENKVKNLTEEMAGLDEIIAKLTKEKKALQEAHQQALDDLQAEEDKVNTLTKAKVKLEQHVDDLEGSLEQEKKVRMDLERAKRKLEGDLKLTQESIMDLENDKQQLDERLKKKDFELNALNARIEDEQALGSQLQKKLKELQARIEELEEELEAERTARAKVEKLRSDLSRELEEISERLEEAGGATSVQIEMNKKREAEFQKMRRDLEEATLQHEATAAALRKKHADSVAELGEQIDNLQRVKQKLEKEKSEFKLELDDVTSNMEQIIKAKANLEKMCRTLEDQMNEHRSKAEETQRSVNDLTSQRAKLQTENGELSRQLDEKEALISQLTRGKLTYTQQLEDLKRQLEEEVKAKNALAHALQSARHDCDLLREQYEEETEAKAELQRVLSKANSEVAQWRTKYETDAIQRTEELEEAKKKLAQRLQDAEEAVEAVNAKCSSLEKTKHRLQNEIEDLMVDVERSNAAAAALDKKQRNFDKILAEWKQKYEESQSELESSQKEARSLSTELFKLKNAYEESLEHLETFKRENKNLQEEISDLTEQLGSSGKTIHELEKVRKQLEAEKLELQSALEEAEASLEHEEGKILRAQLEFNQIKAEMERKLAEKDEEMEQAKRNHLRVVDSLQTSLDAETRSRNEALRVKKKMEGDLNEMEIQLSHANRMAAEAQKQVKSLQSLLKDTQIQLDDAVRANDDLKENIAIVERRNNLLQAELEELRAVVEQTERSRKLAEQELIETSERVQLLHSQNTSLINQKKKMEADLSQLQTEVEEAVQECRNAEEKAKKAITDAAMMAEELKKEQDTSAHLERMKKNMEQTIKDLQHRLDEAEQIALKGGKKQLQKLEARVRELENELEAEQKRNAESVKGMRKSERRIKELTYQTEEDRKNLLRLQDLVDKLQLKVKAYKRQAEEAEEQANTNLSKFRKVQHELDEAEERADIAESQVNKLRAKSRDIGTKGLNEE
Source text: as §1

[9] = molecular target: recombinant human non-muscle myosin 2 NM2C (Homo sapiens, UniProt Q7Z406); experiment: actomyosin steady state ATPase measurement, NM2C; type: biochemical; conditions: for IC50: concentration required for semi-maximal inhibition of ATPase; for % inhibition. complete NM2C: maximum value of inhibition of ATPase activity; for inhibition at 5 µM: read-out: % inhibition at 5 μM (or 10 μM if racemate) NM2C, 5 μM (10 μM if racemate); for inhibition at 5 µM / inhibition at 50 µM: ATPase activity; for inhibition at 50 µM: read-out: % inhibition at 50 μM (or 100 μM if racemate) NM2C, 50 μM (100 μM if racemate)
Source text: as §1

O=C1c2ccsc2N=C2N(c3ccccc3)CCC12O (stereo not drawn) [Compound 180, 9-Hydroxy-12-phenyl-4-thia-2,12-diazatricyclo[7.3.0.0^3,7]dodeca-1,3(7),5-trien-8-one]
IC50 [1]: 13.1 µM
% inhibition. complete Dicty [1]: 85%
inhibition at 5 µM [1]: 22%
inhibition at 50 µM [1]: 67%
solubility [2]: 2400 µM
IC50 [3]: 14 µM
% inhibition at 5 μM (or 10 μM if racemate) Smooth [4]: 16%
% inhibition at 50 μM (or 100 μM if racemate) Smooth [4]: 38%
% inhibition. complete Smooth [4]: 58%
% inhibition at 5 μM (or 10 μM if racemate) Skeletal [5]: 87%
% inhibition at 50 μM (or 100 μM if racemate) Skeletal [5]: 96%
IC50 [5]: 0.81 µM
% inhibition. complete Skeletal [5]: 99%
IC50 ([6]; concentration required for semi-maximal inhibition of ATPase): 18.7 µM
% inhibition. complete NM2B ([6]; maximum value of inhibition of ATPase activity): 60%
inhibition at 5 µM ([6]; read-out: % inhibition at 5 μM (or 10 μM if racemate) NM2B, 5 μM (10 μM if racemate), ATPase activity): 14%
inhibition at 50 µM ([6]; read-out: % inhibition at 50 μM (or 100 μM if racemate) NM2B, 50 μM (100 μM if racemate), ATPase activity): 44%
IC50 [7]: 9.8 µM
Inhibition (%) NM2A ([7]; maximum inhibition, compounds in IC50 range 5-10 μM): 48%
% inhibition. complete NM2A [7]: 48%
inhibition at 5 µM [7]: 15%
inhibition at 50 µM [7]: 44%
IC50 [8]: 5.1 µM
Inhibition (%) cardiac ([8]; maximum inhibition, compounds in IC50 range 3-6 μM): 89%
% inhibition. complete cardiac [8]: 89%
inhibition at 5 µM [8]: 42%
inhibition at 50 µM [8]: 81%
IC50 [9]: 9.3 µM
% inhibition. complete NM2C [9]: 60%
inhibition at 5 µM [9]: 20%
inhibition at 50 µM [9]: 55%

COc1ccc(N2CC[C@@]3(O)C(=O)c4ccsc4N=C23)cc1 [Compound 211, (9S)-9-hydroxy-12-(4-methoxyphenyl)-4-thia-2,12-diazatricyclo[7.3.0.0^3,7]dodeca-1,3(7),5-trien-8-one]
IC50 [1]: 9.4 µM
% inhibition. complete Dicty [1]: 100%
inhibition at 5 µM [1]: 33%
inhibition at 50 µM [1]: 85%
solubility [2]: 510 µM
IC50 [3]: 7 µM
% inhibition at 5 μM (or 10 μM if racemate) Smooth [4]: 34%
% inhibition at 50 μM (or 100 μM if racemate) Smooth [4]: 74%
% inhibition. complete Smooth [4]: 85%
% inhibition at 5 μM (or 10 μM if racemate) Skeletal [5]: 93%
% inhibition at 50 μM (or 100 μM if racemate) Skeletal [5]: 98%
IC50 [5]: 0.28 µM
% inhibition. complete Skeletal [5]: 98%
IC50 [7]: 22 µM
% inhibition. complete NM2A [7]: 99%
inhibition at 5 µM [7]: 17%
inhibition at 50 µM [7]: 69%
IC50 [8]: 1.3 µM
% inhibition. complete cardiac [8]: 87%
inhibition at 5 µM [8]: 67%
inhibition at 50 µM [8]: 85%
IC50 [9]: 2 µM
% inhibition. complete NM2C [9]: 70%
inhibition at 5 µM [9]: 46%
inhibition at 50 µM [9]: 67%

Nc1ccc(N2CC[C@@]3(O)C(=O)c4ccsc4N=C23)cc1 [Compound 210, (9S)-12-(4-aminophenyl)-9-hydroxy-4-thia-2,12-diazatricyclo[7.3.0.0^3,7]dodeca-1,3(7),5-trien-8-one]
IC50 [1]: > 100 µM
% inhibition. complete Dicty [1]: 100%
inhibition at 5 µM [1]: 3%
inhibition at 50 µM [1]: 34%
solubility [2]: 1360 µM
IC50 [3]: 12.5 µM
% inhibition at 5 μM (or 10 μM if racemate) Smooth [4]: 9%
% inhibition at 50 μM (or 100 μM if racemate) Smooth [4]: 28%
% inhibition. complete Smooth [4]: 37%
% inhibition at 5 μM (or 10 μM if racemate) Skeletal [5]: 44%
% inhibition at 50 μM (or 100 μM if racemate) Skeletal [5]: 84%
IC50 [5]: 5.6 µM
% inhibition. complete Skeletal [5]: 94%
IC50 [7]: > 100 µM
% inhibition. complete NM2A [7]: 100%
inhibition at 5 µM [7]: 0%
inhibition at 50 µM [7]: 14%
IC50 [8]: 6 µM
% inhibition. complete cardiac [8]: 82%
inhibition at 5 µM [8]: 36%
inhibition at 50 µM [8]: 73%
IC50 [9]: 5.2 µM
% inhibition. complete NM2C [9]: 41%
inhibition at 5 µM [9]: 18%
inhibition at 50 µM [9]: 38%

— patent US12421243B2, “Pharmaceutically effective compounds inhibiting selectively the myosin 2 isoforms” (PRINTNET KERESKEDELMI ÉS SZOLGÁLTATÓ KFT., priority 2018, dated 2025)
